Assay [1] in a line: Cytotoxicity against human BC cells by SRB assay. The assay is classed as functional, cell-based.
Assay [2] deals with Mycobacterium tuberculosis. Put plainly: Antimycobacterial activity against Mycobacterium tuberculosis H37Ra after 4 days by microplate alamar blue assay. As to conditions: 96 h. The assay is classed as functional.
Assay [3] relates to KB. Nature of the assay: Cytotoxicity against human KB cells at 20 ug/ml by SRB assay. It is filed as functional, cell-based. (The SRB assay estimates cell density from bound dye.)
Assay [4] relates to KB. Put plainly: Cytotoxicity against human KB cells by SRB assay. The assay is classed as functional, cell-based.

Molecules are shown by their SMILES. Converted amounts (≈) assume the structure as drawn. The source made the active and inactive calls. The rule behind the calls is not given here.

Broadly, the IC50 is the concentration at which inhibition is half-maximal. The term MIC denotes the lowest concentration that inhibits growth of the organism.

In assay [1], `Cc1c2ccncc2c(C)c2c1[nH]c1ccccc12` [ELLIPTECINE] had an IC50 of 0.2 µg/mL (≈ 0.812 µM). The compound `NNC(=O)c1ccncc1` [ISONIAZID] returned an MIC in assay [2] of 0.04 µg/mL (≈ 0.292 µM). In assay [2], `NC[C@H]1O[C@H](O[C@H]2[C@H](O)[C@@H](O[C@H]3O[C@H](CO)[C@@H](O)[C@H](N)[C@H]3O)[C@H](N)C[C@@H]2N)[C@H](O)[C@@H](O)[C@@H]1O.O=S(=O)(O)O` [KANAMYCIN SULFATE] yielded an MIC of 2 µg/mL.

Consider `COc1cc(OC)c(CC=C(C)C)c(-c2cc3ccc(O)cc3o2)c1CC=C(C)C` [LAKOOCHIN A], for which the minimum inhibitory concentration (MIC) in assay [2] worked out at 12.5 µg/mL (≈ 30.7 µM). Further, the IC50 in assay [1] was 6.1 µg/mL (≈ 15 µM). For the same compound, the result with KB [3] was inactive. Consider `CC(C)=CCC/C(C)=C/Cc1c(O)cc(O)c(CC=C(C)C)c1-c1cc2ccc(O)cc2o1` [LAKOOCHIN B], for which the lowest concentration to inhibit growth in assay [2] (MIC) was 50 µg/mL (≈ 112 µM). Besides, the IC50 in assay [1] came to 3.1 µg/mL (≈ 6.94 µM); with KB [4], 6.1 µg/mL (≈ 13.7 µM).
